Among the test systems are TK-10 renal; DU-145 prostate; BT-549 breast; MCF7 breast; SNB-19 CNS.
Holding throughout (assay): NCI tumour cell line growth inhibition, 48 h

Molecules are shown by their SMILES.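 Values below derive from 48-hour exposures of cells grown in 96-well plates, with endpoints linearly interpolated between the two concentrations bracketing the appropriate inhibition level. Here, GI50 denotes the concentration required for 50% inhibition of growth. Definition used: TGI = concentration required for complete inhibition of growth.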

Regarding `O=C1COCCN1c1ccc(NCc2cn(Cc3ccc(F)cc3)c3ccccc23)cc1`, the GI50 in the assay on TK-10 renal is 0.0456 µM; in the assay with DU-145 prostate, 5.33 µM; in the assay on BT-549 breast, 3.47 µM; in the assay with MCF7 breast, 0.114 µM; in the assay on SNB-19 CNS it was 19.4 µM. In addition, the TGI in the assay with TK-10 renal was 0.636 µM; with DU-145 prostate, over 69.1 µM; in the assay with BT-549 breast, 22.4 µM; in the assay with MCF7 breast it was 13 µM; with SNB-19 CNS, over 100 µM.
Take `NC(CSC(c1ccccc1)(c1ccccc1)c1ccc(Br)cc1)C(=O)O` (stereo not drawn): the GI50 in the assay with TK-10 renal was 14 µM; with DU-145 prostate, 0.236 µM; in the assay on BT-549 breast, 0.971 µM; with MCF7 breast it was 0.0573 µM; in the assay with SNB-19 CNS it was 0.296 µM. Moreover, the TGI is over 100 µM in the assay on TK-10 renal; 0.548 µM in the assay on DU-145 prostate; over 57 µM with BT-549 breast; over 51.2 µM with MCF7 breast; over 76.6 µM in the assay with SNB-19 CNS.
Take `Clc1ccc2c(NCCCNCc3ccc4c(c3)OCO4)ccnc2c1`: the GI50 in the assay on TK-10 renal was 2.19 µM; with BT-549 breast it was 4.47 µM; in the assay with MCF7 breast, 2.89 µM; in the assay with SNB-19 CNS, 4.79 µM. Further, the TGI with TK-10 renal stood at 5.54 µM; in the assay on BT-549 breast, 17.7 µM; in the assay with MCF7 breast, 13 µM; in the assay on SNB-19 CNS it was 16.9 µM.
Consider `COc1cccc(/C=N/[N-]C(N)=O)c1[O-].[Cu+2].c1ccncc1`, for which the TGI in the assay with SNB-19 CNS came to 25 µM.
Take `C=C(C=O)[C@@H]1CC=C(C=O)CC1`: the GI50 in the assay on TK-10 renal is 8.76 µM; in the assay with DU-145 prostate it was 3.44 µM; in the assay with BT-549 breast, 3.26 µM; in the assay with MCF7 breast, 2.96 µM; in the assay with SNB-19 CNS, 17.4 µM. In addition, the TGI is 54.6 µM with TK-10 renal; 11.2 µM with DU-145 prostate; over 30.5 µM in the assay on BT-549 breast; over 35.5 µM with MCF7 breast; 71.2 µM in the assay on SNB-19 CNS.
`O=c1c(Br)ccc(Br)cc1Br`: the GI50 in the assay on TK-10 renal is 1.55 µM; with DU-145 prostate, 1.75 µM; in the assay with BT-549 breast, 2.08 µM; in the assay on MCF7 breast, 3.81 µM; in the assay on SNB-19 CNS, 11.7 µM. Moreover, the TGI with TK-10 renal was 5.23 µM; with DU-145 prostate, 3.14 µM; with BT-549 breast, 3.98 µM; in the assay on MCF7 breast, 77.6 µM; with SNB-19 CNS, 25.2 µM.
`C/C(=N\O)c1ccc(Nc2cc(-c3ccccc3)nc3c(O)cccc23)cc1`: the GI50 in the assay with TK-10 renal is 12 µM; in the assay on DU-145 prostate, 13.5 µM; with BT-549 breast, 23.3 µM. The TGI in the assay with TK-10 renal was determined as 29.8 µM; with DU-145 prostate, 28.5 µM; in the assay with BT-549 breast it was 86.6 µM.
Turning to `CC(NC(=O)C1(N)CCCC1)C(=O)O` (stereo not drawn), the TGI in the assay with TK-10 renal, with DU-145 prostate, in the assay on BT-549 breast, in the assay on MCF7 breast and in the assay on SNB-19 CNS was over 100 µM each time.
Turning to `COc1cc(Nc2nccc(-c3cnn4ncccc34)n2)cc(OC)c1`, the GI50 with TK-10 renal is 0.0982 µM; in the assay on DU-145 prostate, 0.0724 µM; in the assay on BT-549 breast, 0.0893 µM; with MCF7 breast, 0.0521 µM; with SNB-19 CNS, 0.0836 µM. Also, the TGI was 0.406 µM in the assay on TK-10 renal; 2.82 µM in the assay on DU-145 prostate; 2.19 µM in the assay with BT-549 breast; 0.2 µM in the assay on MCF7 breast; over 25 µM with SNB-19 CNS.
Regarding `COc1cc(Cl)c(C)cc1NC(=O)c1cc2ccccc2cc1O`, the GI50 with TK-10 renal is 2.92 µM; in the assay with DU-145 prostate, 3.4 µM; in the assay on MCF7 breast, 2.38 µM; in the assay with SNB-19 CNS it was 4.34 µM. In addition, the TGI in the assay with TK-10 renal stood at 7.26 µM; with DU-145 prostate, 14.4 µM; in the assay with MCF7 breast it was 13.2 µM; with SNB-19 CNS, 20.7 µM.
`COc1ccc2c(C(=O)NCCCCCC(=O)O)cc3cc4c(cc3c2c1)OCO4`: the GI50 was over 100 µM in the assay with TK-10 renal; over 100 µM in the assay on DU-145 prostate; 75.5 µM with BT-549 breast; over 100 µM in the assay with MCF7 breast; over 100 µM in the assay on SNB-19 CNS. Also, the TGI in the assay on TK-10 renal, in the assay on DU-145 prostate, with BT-549 breast, in the assay on MCF7 breast and with SNB-19 CNS was over 100 µM throughout.
For the molecule `Cc1cnc2n(c1=O)Cc1ccccc1CO2`, the GI50 was 20.9 µM with TK-10 renal; 16.6 µM with DU-145 prostate; 15.5 µM in the assay on BT-549 breast; 10.6 µM in the assay on MCF7 breast; 21.7 µM with SNB-19 CNS. Further, the TGI in the assay with TK-10 renal came out at 49.4 µM; in the assay with DU-145 prostate it was 32.1 µM; in the assay with BT-549 breast, 32.8 µM; in the assay on MCF7 breast, 28.1 µM; in the assay on SNB-19 CNS, 61.6 µM.
For `COc1cc(-c2cc(C(=O)N3CCN(C(=O)c4ccccc4NCc4cccs4)CC3)nc3cc(-c4ccccc4)nn23)cc(OC)c1OC`, the GI50 was 20.6 µM with TK-10 renal; 5 µM in the assay with DU-145 prostate; 6.26 µM with BT-549 breast; 2.56 µM in the assay on MCF7 breast; 8.99 µM with SNB-19 CNS. In addition, the TGI was over 100 µM in the assay on TK-10 renal; 40.6 µM with DU-145 prostate; over 100 µM in the assay with BT-549 breast; over 100 µM in the assay with MCF7 breast; over 100 µM in the assay with SNB-19 CNS.
Turning to `O=C(/C=C/c1ccco1)c1cccc(Nc2nc(Nc3ccccc3)nc(Nc3ccccc3)n2)c1`, the GI50 is 55.3 µM in the assay on TK-10 renal; 14.5 µM with DU-145 prostate; 19 µM in the assay on BT-549 breast; 1.92 µM with MCF7 breast; over 100 µM with SNB-19 CNS. Moreover, the TGI in the assay on TK-10 renal is over 100 µM; with DU-145 prostate, over 100 µM; with BT-549 breast, over 82.9 µM; in the assay with MCF7 breast, over 52.4 µM; in the assay with SNB-19 CNS, over 100 µM.
In the case of `O=c1c(-c2nc3ccccc3[nH]2)cc2ccccc2n1Cc1cn(Cc2ccc(F)cc2)nn1`, the GI50 in the assay with TK-10 renal was 0.793 µM; in the assay on DU-145 prostate, 0.143 µM; in the assay with BT-549 breast, 0.164 µM; with MCF7 breast, 0.0329 µM; in the assay with SNB-19 CNS it was 0.305 µM. Further, the TGI is 15.8 µM in the assay with TK-10 renal; 1.05 µM with DU-145 prostate; over 40.5 µM in the assay on BT-549 breast; over 55.1 µM with MCF7 breast; 25.2 µM in the assay on SNB-19 CNS.
Take `Nc1nc(N)c(N=Nc2ccc([As](=O)(O)O)c(O)c2)c(N)n1`: the TGI is over 51.8 µM with TK-10 renal; 38.1 µM in the assay on DU-145 prostate; over 100 µM with BT-549 breast; over 100 µM with MCF7 breast; over 100 µM in the assay on SNB-19 CNS.

The values above are taken from PubChem BioAssay (NCI).
